In patent US12233083B2, “Methods for the use of 5′-adenosine diphosphate ribose (ADPR)” (Invirsa, Inc., priority 2018, dated 2025):
“And” between values parts separate entries of the source, which are not always exact repeats. Equal values may be shown once. “Also recorded” adds a separate entry of the source. Read-outs that look alike come from different tables or passages of the source.

Assays:
HSV-1, strain MacIntyre = test: Plaque inhibition against HSV-1 strain MacIntyre in A549 cells; type: cell-based, herpes simplex virus type 1; settings: for Percent plaque area (ImageJ): A549 cells, duplicate wells
Description: Background: […] Again, acyclovir was included as a positive control. […] Acyclovir was tested at 0.002 and 0.05 mM. A control, with no treatment was also evaluated. […] After virus adsorption, media was removed and monolayers overlaid with semisolid agarose media containing each drug dilution. Monolayers were fixed and stained with crystal violet to visualize virus plaques. Pictures of the test plates were submitted to client for image analysis. Percent plaque area was calculated using ImageJ, version 1.52i.

Sirt6 = settings: 60 μM
Description: Sirt6 expression using western blots was evaluated in human corneal epithelial cells. Cell Culture: Human corneal epithelial cells (ATCC) were grown to just below confluency (80-90%) at 37° C., 5% CO2. They were washed twice with sterile phosphate buffered saline (PBS) and serum starved for 2 hours at 37° C. […] They were incubated for either 15, 30, 60 or 120 minutes with treatment. After each time point, treatment was aspirated and cells were washed twice with ice cold PBS. Cells were lysed in ice-cold cell lysis buffer and rotated end-over-end at 4° C. for 30 minutes. They were then centrifuged at 14,000g for 30 minutes at 4° C. […] Samples were stored frozen at -20° C. until performing the Western Blot. […] Proteins were electrophoresed at [MUT] for approximately 50 minutes then transferred to nitrocellulose. After blocking the blot for 1 hour at room temperature in 3% BSA in a standard mixture of tris-buffered saline and Polysorbate 20 (TBST), primary antibody (anti-Sirtuin 6) was added in blocking buffer and incubated overnight at 4° C. The blot was washed 3 times with TBST and HRP-linked secondary antibody added at 1:2000 for 40 minutes at room temperature. The blot was again washed 3 times with TBST and developed with ECL reagents for 1 minute. Images were obtained with ChemiDoclt Imager (UVP, Upland CA) with exposures ranging from 30 seconds to 5 minutes. […]

RSV/A2 = test: Cotton rat RSV lung infection: lung viral titer; type: in vivo; settings: 0.5% soln, 50 μL IN BID, day 5, vs PBS
Description: (§1) Methods: In view of the reduction in hRSV cellular infection in A549 and human airway epithelial cells, an in vivo experiment in the Cotton Rat was carried out using RSVA2 infection. In this study, adult male cotton rats (6-8 weeks of age) were divided into groups of 4 animals each. Animals were pre-bled for serum collection and ear tagged for identification. All animals were infected via intranasal instillation with 0.1 mL of RSV/A2 at 10^5 plaque-forming units (pfu) per animal.
(§2) At each treatment the animals received 50 μL. On day 5, the animals were sacrificed for viral lung titers and cytokine analysis. Interferon gamma (IFNγ) and transforming growth factor beta (TGFβ) gene expression were analyzed by PCR. The cytokine mRNA level was normalized relative to beta actin.

[1] = system: transforming growth factor beta (TGFβ); test: Cotton rat RSV lung infection: lung TGFβ gene expression by PCR; type: in vivo; settings: 0.5% soln, 50 μL IN BID, day 5, vs PBS
Description: as §1, §2

[2] = target: purified recombinant GST-SIRT6 protein (Homo sapiens, UniProt Q8N6T7); settings: first study
Chain of purified recombinant GST-SIRT6 protein (Q8N6T7 whole entry): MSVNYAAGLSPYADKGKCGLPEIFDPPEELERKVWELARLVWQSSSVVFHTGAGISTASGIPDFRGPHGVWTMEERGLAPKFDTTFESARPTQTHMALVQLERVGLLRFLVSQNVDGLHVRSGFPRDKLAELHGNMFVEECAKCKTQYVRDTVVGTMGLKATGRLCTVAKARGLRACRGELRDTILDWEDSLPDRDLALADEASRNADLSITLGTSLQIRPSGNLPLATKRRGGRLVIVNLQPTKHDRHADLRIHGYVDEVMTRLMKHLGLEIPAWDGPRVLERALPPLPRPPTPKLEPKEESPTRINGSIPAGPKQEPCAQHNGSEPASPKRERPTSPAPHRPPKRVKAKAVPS
Description: This first set of studies was performed using a Western blot method (Rahnasto-Rilla, 2016, Methods Mol. Biol., 1436:259-269) for the in vitro evaluation of Sirt6 deacetylation activity. […] Acetylation level was detected with anti-H3K9Ac antibody and normalized to total H3 histone (FIG. 5 (b)).

HRSV [3] = test: Inhibition of HRSV replication in A549 cells (RSV with Renilla luciferase reporter); type: cell-based, human respiratory syncytial virus
HRSV [4] = test: Reduction of HRSV infection in primary human airway epithelial (HAE) cultures (luciferase); type: cell-based, human respiratory syncytial virus; settings: 0.9 and 2.7 mg/ml, days 1 and 3 (24 and 72 hours) post inoculation
Interferon gamma (IFNγ) = test: Cotton rat RSV lung infection: lung IFNγ gene expression by PCR; type: in vivo; settings: 0.5% soln, 50 μL IN BID, day 5, vs PBS
Description: as §1, §2

HRSV [5] = test: Reduction of HRSV cellular infection in A549 cells (RSV with GFP reporter, infected cells counted); type: cell-based, human respiratory syncytial virus
Vero cells = settings: African green monkey

## Nc1ncnc2c1ncn2[C@@H]1O[C@H](COP(=O)([O-])OP(=O)([O-])OC[C@H]2OC(O)[C@H](O)[C@@H]2O)[C@@H](O)[C@H]1O.[Li+].[Li+] (some centres unmarked) [Li2-ADPR, dilithium ADPR]
HSV-1, strain MacIntyre; 0.1 mM
  Percent plaque area (ImageJ): 8.1% and 8.3%
HSV-1, strain MacIntyre; 0.4 mM
  Percent plaque area (ImageJ): 14.3% and 7.3%
HSV-1, strain MacIntyre; 1.2 mM
  Percent plaque area (ImageJ): 4.8% and 3.8%
HSV-1, strain MacIntyre; Li2-ADPR 0.1 mM
  HSV-1 plaques observed in wells: plaques similar in number and size as the untreated wells
HSV-1, strain MacIntyre; Li2-ADPR increased from 0.4 to 1.2 mM
  HSV-1 plaques observed in wells: the plaque number decreased and the plaque size decreased
Sirt6; 30 minutes
  Sirt6 protein concentration relative to baseline (No Treat lane): 155%
Sirt6; two hours
  Sirt6 protein concentration relative to baseline (No Treat lane): returned to baseline
RSV/A2
  lung RSV titers: reduced
[1]
  lung TGFβ mRNA (normalized to beta actin): significant decrease
[2]; between 0.01 and 1 μM
  Sirt6 deacetylation activity (inverse of H3K9Ac / total H3): increasing activation
[2]; concentrations of 10 μM and above
  Sirt6 deacetylation activity (inverse of H3K9Ac / total H3): variable activity
HRSV [3]; 2.7 mg/ml
  inhibition of RSV replication (luminescence), difference: five
HRSV [3]; days 1 and 2 after infection
  HRSV replication (luminescence) with increasing concentrations: significant dose-dependent inhibition
HRSV [4]
  RSV replication / percentage of cells infected in HAE cultures (luciferase activity): significantly inhibiting; also recorded: significant reduction
Interferon gamma (IFNγ)
  lung IFNγ mRNA (normalized to beta actin): increase
HRSV [5]; 0.1 mg/ml
  reduction of percentage of A549 cells infected with HRSV: ~50%
HRSV [5]; 2.7 mg/ml
  reduction of percentage of A549 cells infected with HRSV: ~85%
HRSV [5]; days 1 and 2 after inoculation
  percentage of A549 cells infected with increasing concentrations: significant reduction

## Nc1nc2c(ncn2COCCO)c(=O)[nH]1 [Acyclovir]
HSV-1, strain MacIntyre; Acyclovir 0.002 mM
  HSV-1 plaques observed in wells: more smaller plaques, but not as many nor as large as the untreated wells
HSV-1, strain MacIntyre; acyclovir 0.05 mM
  HSV-1 plaques observed in wells: few small breakthrough plaques
Vero cells; 0.1 μM
  Toxicity Grade on Vero Cells: 0
Vero cells; 2 μM
  Toxicity Grade on Vero Cells: 0
Vero cells; 50 μM
  Toxicity Grade on Vero Cells: 0
